Assay results: patent US20200061084A1, “USE OF 2AMD AND 2MD TO TREAT FIBROSIS” (WISCONSIN ALUMNI RESEARCH FOUNDATION, priority 2016, published 2020)

What was measured:
[1] = Serum calcium levels of rats dosed with CsA and vitamin D analogs (atomic absorption spectroscopy); format: in vivo, Sprague-Dawley male rats
Method: Rats were randomly assigned to groups of 6 each. Each animal received daily injections under 2% isofluorane. […] Vitamin D analogs were dissolved in polyethylene glycol, 0.5% ethanol (PEG). […] All rats were provided with food and water ad-libitum as per standard procedure. Animals were dosed daily for 28 days with the last dose given approximately 24 h prior to harvest (except for 5 animals receiving 1,25(OH)2D3 which were dosed 48 h prior to harvest). Animals were placed under anesthesia, urine and blood (aorta) were collected and kidneys removed; rats were euthanized by pneumothorax puncture. Kidneys were sectioned longitudinally with one half placed into 10% formalin and the other half snap frozen into liquid nitrogen. Blood was allowed to clot for about 1 h followed by spinning and removing of serum. Tissues in formalin were embedded in paraffin and sectioned for further study. Serum, urine and frozen kidney tissues were stored at −80° C.
Serum was analyzed for BUN, creatinine and calcium levels. The BUN and creatinine measurements were performed using IDEXX cartridges measured on a VETTEST Chemistry Analyzer.

[2] = system: CsA-induced nephrotoxicity; assay: CsA-induced nephrotoxicity in rats, 28 days: weight, serum BUN and creatinine, urinary protein/creatinine ratio, H&E and picrosirius red histology; format: in vivo, Sprague-Dawley male rats; settings: for Dose sufficient to prevent nephrotoxicity and/or fibrosis without dramatically increasing serum calcium levels: Sprague-Dawley rats; for Picrosirius staining (collagens): kidney sections, birefringence quantified; for Picrosirius staining (collagens) / Serum creatinine / BUN / Urinary protein/creatinine ratio: rats; for Picrosirius staining (collagens) / weight / Serum creatinine / BUN / Urinary protein/creatinine ratio: CsA 20 mg/kg/day, analog 5 ng/kg, daily 28 days; for weight: rats at harvest; for BUN: serum; for Urinary protein/creatinine ratio: spot urine at harvest
Method: Rats were randomly assigned to groups of 6 each. Each animal received daily injections under 2% isofluorane. […] Vitamin D analogs were dissolved in polyethylene glycol, 0.5% ethanol (PEG). […] All rats were provided with food and water ad-libitum as per standard procedure. Animals were dosed daily for 28 days with the last dose given approximately 24 h prior to harvest (except for 5 animals receiving 1,25(OH)2D3 which were dosed 48 h prior to harvest). Animals were placed under anesthesia, urine and blood (aorta) were collected and kidneys removed; rats were euthanized by pneumothorax puncture. Kidneys were sectioned longitudinally with one half placed into 10% formalin and the other half snap frozen into liquid nitrogen. Blood was allowed to clot for about 1 h followed by spinning and removing of serum. Tissues in formalin were embedded in paraffin and sectioned for further study. Serum, urine and frozen kidney tissues were stored at -80° C. […] Serum was analyzed for BUN, creatinine and calcium levels. The BUN and creatinine measurements were performed using IDEXX cartridges measured on a […] Chemistry Analyzer. […] Urine testing to determine protein/creatinine ratio was performed using IDEXX cartridges; protein levels were also measured using BCA protein determination. Kidneys fixed in formalin were embedded in paraffin, sectioned and stained with Hematoxilin/eosin and with pricrosirius red, which stains mostly collagens I and III. Stained sections were imaged on an upright brightfield Nikon microscope with polarizer capabilities to assess the birefringence of the picrosirius-stained collagen fibers. Quantization of staining was carried out using Image J from 5 images obtained at random within the central cortical area and excluding blood vessels. For H&E, the eosin staining (pink) prevalent in native tissue was quantified Data was analyzed using Graphpad Prism software with the standard student t-test or One-way Anova operations.

[3] = system: unilateral ureteral obstruction (UUO) model; assay: Unilateral ureteral obstruction (UUO) model, picrosirius staining of collagen in kidney sections; format: in vivo, Male Sprague-Dawley rats
Text: The unilateral ureteral obstruction (UUO) model is a surgical model representing a rodent equivalent of acute kidney injury. Obstruction results in marked dilatation of the ureter together with reduced renal blood flow and glomerular filtration.
Male Sprague-Dawley rats weighing approximately 200-350 g were acclimated and fed ad libitum a standard diet (Teklad 8604 or 2018, Harlan, Madison Wis.). Briefly, under 2% isoflurane anesthesia, the left kidney and ureter were exposed through a midline or a flank incision. The ureter was ligated using 5-0 or 6-0 braided silk suture material. The ligated ureter and kidney were returned to the abdominal cavity and the incision was closed in two layers with interrupted sutures and VETBOND tissue adhesive or staples. The right or contralateral kidney was used as a control. Sham operated animals were treated as the UUO animals except their ureter was not ligated (not shown).
Animals were given buprenorphine (0.05 mg/kg) prior to returning them to their cages where they were kept on standard water and chow until sacrifice at the designated times. Animals were euthanized under CO2, following a midline incision blood was collected via cardiac puncture and the kidneys were removed. The midsection of each kidney was placed in 10% formalin for paraffin embedding and histological staining. […]

Molecule | Dose sufficient to prevent nephrotoxicity and/or fibrosis without dramatically increasing serum calcium levels [2] [ng/kg per day] | Decrease of BUN compared to the CsA-treated group ([2]; analog at 5 ng/kg) | Mean UPC lower than the mean UPC for the CsA group ([2]; analog at 5 ng/kg) | Picrosirius staining (collagens) [2] | weight [2] [g] | Serum creatinine [2] [mg/dL] | BUN [2] [mg/dL] | Urinary protein/creatinine ratio [2] | other results
C=C1/C(=C\C=C2/CCC[C@]3(C)[C@@H]([C@H](C)CCCC(C)(C)O)CC[C@@H]23)C[C@@H](O)C[C@@H]1O [1,25(OH)2 D3, 1,25(OH)2D3] |  |  |  |  |  |  |  |  | Serum calcium level increase with respect to rats with vehicles or CsA+PEG ([1]; CsA + 1,25(OH)2D3 100 ng/kg, 28 days): about 25%
C=C1[C@H](O)CC(=C/C=C2\CCCC3(C)C2CCC3[C@@H](C)CCCC(C)(C)O)C[C@H]1O (stereo partly drawn) [2MD, 2-methylene-19-nor-(20S)-1α,25-dihydroxyvitamin D3] | 5 | about 30% | about 74% | 1.7 | 317.3 | 0.33 | 27 | 0.4 | 
2α-methyl-19-nor-(20S)-1α,25-dihydroxyvitamin D3 [2AMD] | 5 | about 30% | about 74% | 1.8 | 333.8 | 0.36 | 28 | 0.2 | Collagen content ([2]; 2.5 ng/kg): reduction in collagen content; Decrease of BUN compared to the CsA-treated group ([2]; 2AMD at 10 ng/kg): about 30%; Serum creatinine, normal (below 0.6 mg/dL) or not ([2]; 2AMD at 20 ng/kg): normal in most of the treatment groups except for 2AMD at 20 ng/kg; Eosinophilic tissue (eosin in H&E-stained kidney) compared to the CsA treated group ([2]; CsA + 2AMD 2.5 ng/kg): promoted an increase in eosinophilic tissue; Eosinophilic tissue (eosin in H&E-stained kidney) compared to the CsA treated group ([2]; CsA + 2AMD 5 ng/kg): promoted an increase in eosinophilic tissue; Decrease of the CsA-promoted increase in collagen birefringence (picrosirius red) ([2]; CsA + 2AMD 5 ng/kg, 28 days): about 30%; Drop in weight from the rats' original weights ([2]; CsA + 2AMD 5 ng/kg, day of harvest): 5 g; Fibrosis ([2]; all doses of 2AMD (2.5, 5, 10, 20 ng/kg)): effective at reducing fibrosis; Dose optimal in nephroprotection ([2]; various doses of 2AMD tested): 5 ng/kg rat body weight; Relationship of serum calcium levels with dose ([1]; rat, in vivo): linear relationship with dose; Decrease in collagen content (picrosirius staining) ([3]; 2AMD 5 ng/kg oral daily for 14 days starting on the day of UUO): 3 fold; Decrease in collagen content (picrosirius staining) ([3]; 2AMD 5 ng/kg oral daily, from 7 days prior to UUO to 7 days after UUO (-7+7)): 3 fold
cyclosporine [CsA + PEG] |  |  |  |  |  |  |  |  | Serum Ca ([1]; rats, CsA 20 mg/kg/day, analog 5 ng/kg, daily injection 28 days, blood about 24 h after last dose): 8.7 mg/dL
